Experimental data from the NIST ThermoML archive (doi:10.1021/acs.jced.6b00354).

Settings: 101.33 kPa, Liquid, Vibrating tube method

CC(=O)N(C)C [N,N-dimethylethanamide]
Settings | mass density [kg/m3]
283.15 K | 950.189
288.15 K | 945.589
293.15 K | 940.983
298.15 K | 936.38
303.15 K | 931.762
308.15 K | 927.145
313.15 K | 922.523
318.15 K | 917.893
